Reference: ChEMBL document CHEMBL1150135, “Pharacine, a natural p-cyclophane and other indole derivatives from Cytophaga sp. strain AM13.1” (J Nat Prod, 2002)
Activity calls are given as the source filed them.

What was measured:
Assay type in all cases: functional, organism-based
[1] = system: Rhizomucor miehei; assay: Antimicrobial activity against Mucor miehei by agar diffusion method
[2] = system: Candida albicans; assay: Antimicrobial activity against Candida albicans by agar diffusion method
[3] = system: Staphylococcus aureus; assay: Antimicrobial activity against Staphylococcus aureus by agar diffusion method
[4] = system: Bacillus subtilis; assay: Antimicrobial activity against Bacillus subtilis by agar diffusion method
[5] = system: Escherichia coli; assay: Antimicrobial activity against Escherichia coli by agar diffusion method
[6] = system: Streptomyces viridochromogenes; assay: Antimicrobial activity against Streptomyces viridochromogenes by agar diffusion method

Measured: Activity

O=C1OCCCCOC(=O)c2ccc(cc2)C(=O)OCCCCOC(=O)c2ccc1cc2
inactive: all assays above

CC(C)CC(=O)NCCc1c[nH]c2ccccc12
inactive: all assays above

c1ccc2c(Cc3cnc(Cc4c[nH]c5ccccc45)cn3)c[nH]c2c1
inactive: all assays above

NC(=O)Cc1ccc(O)cc1
inactive: all assays above
